This note sets out measurements from patent US20180208605A1, “Substituted Aza Compounds as IRAK-4 Inhibitors” (AURIGENE DISCOVERY TECHNOLOGIES LIMITED, priority 2015, published 2018).

Structures are written as SMILES. Where a name gives a salt, the structure may show the parent alone.

The target in the test is T1, recombinant IRAK-4 kinase (Homo sapiens, UniProt Q9NWZ3).
T1 construct: purchased Millipore, USA
T1 sequence (Q9NWZ3 1-460): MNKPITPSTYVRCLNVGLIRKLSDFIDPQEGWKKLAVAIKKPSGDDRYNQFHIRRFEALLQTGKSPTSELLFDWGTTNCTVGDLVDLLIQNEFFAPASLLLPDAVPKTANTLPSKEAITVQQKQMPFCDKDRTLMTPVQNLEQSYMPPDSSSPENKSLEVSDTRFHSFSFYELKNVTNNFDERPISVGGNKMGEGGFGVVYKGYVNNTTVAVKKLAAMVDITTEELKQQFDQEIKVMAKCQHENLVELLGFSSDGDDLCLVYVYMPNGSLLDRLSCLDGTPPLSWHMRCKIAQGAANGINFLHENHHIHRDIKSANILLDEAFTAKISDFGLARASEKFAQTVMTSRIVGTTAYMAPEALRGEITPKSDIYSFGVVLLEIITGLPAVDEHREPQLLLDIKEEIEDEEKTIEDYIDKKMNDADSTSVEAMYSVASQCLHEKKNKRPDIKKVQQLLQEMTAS
Description: IRAK-4 Biochemical Assay (TR-FRET, percent inhibition). The conditions noted are these: TR-FRET, 20 μM ATP, 100 nM Biotin Histone H3; for inhibition at 0.1 µM: read-out: % inhibition of IRAK-4 @0.1 μM, compound at 0.1 μM; for inhibition at 1 µM: read-out: % inhibition of IRAK-4 @ 1 μM, compound at 1 μM. How it is done: Compounds were tested for their potential to inhibit IRAK-4 enzyme in a TR-FRET assay using recombinant IRAK-4 kinase from Millipore, USA. The assay buffer was 50 mM Tris-HCl pH 7.5, 20 mM MgCl2, 1 mM EGTA, 2 mM DTT, 3 mM MnCl2 and 0.01% Tween 20.5 ng of IRAK-4 kinase was used for the assay. After pre-incubation of enzyme with test compound for 30 minutes at room temperature, a substrate mixture containing 100 nM Biotin Histone H3 (Millipore, USA) and 20 μM ATP (Sigma, USA) was added and the reaction was incubated for 30 min. Post incubation, the reaction was stopped by the addition of stop mix containing 40 mM EDTA, 1 nM of Europium-Anti-Phospho-Histone H3 (Ser10) antibody (Perkin Elmer, USA) and 20 nM SureLight Allophycocyanin-Streptavidin (Perkin Elmer, USA). The fluorescence emission at 615 nm and 665 nm were measured at an excitation of 340 nm and the percent inhibition was estimated from the ratio of the fluorescence intensities [(F665/F615)×10000].

In general, inhibition refers to the relative decrease from the control value, in per cent.

Take `O=C(Nc1cc2sc(N3CCOCC3)nc2nc1N1CCCCC1)c1ccnc(N2CC[C@@H](O)C2)n1` [Example 59, (R)-2-(3-hydroxypyrrolidin-1-yl)-N-(2-morpholino-5-(piperidin-1-yl)thiazolo[4,5-b]pyridin-6-yl)pyrimidine-4-carboxamide]: the inhibition at 0.1 µM is 91% and the inhibition at 1 µM stood at 99%.

As to `O=C(Nc1cc2sc(N3CCOCC3)nc2nc1N1CCCCC1)c1cccc(N2CCC[C@@H](O)C2)n1` [Example 30, (R)-6-(3-hydroxypiperidin-1-yl)-N-(2-morpholino-5-(piperidin-1-yl)thiazolo[4,5-b]pyridin-6-yl)picolinamide], the inhibition at 0.1 µM came out at 98% and the inhibition at 1 µM was 99%.

Take `O=C(Nc1cc2sc(N3CCOCC3)nc2nc1N1CCCCC1)c1ccnc(N2CC[C@H](O)C2)n1` [Example 60, (S)-2-(3-hydroxypyrrolidin-1-yl)-N-(2-morpholino-5-(piperidin-1-yl)thiazolo[4,5-b]pyridin-6-yl)pyrimidine-4-carboxamide]: the inhibition at 0.1 µM was found to be 88% and the inhibition at 1 µM was 94%.

Take `O=C(Nc1cc2sc(N3CCOCC3)nc2nc1N1CCCCC1)c1cccc(N2CCC(O)CC2)n1` [Example 56, 6-(4-hydroxypiperidin-1-yl)-N-(2-morpholino-5-(piperidin-1-yl)thiazolo[4,5-b]pyridin-6-yl)picolinamide]: the inhibition at 0.1 µM is 95% and the inhibition at 1 µM was 96%.

On to `Cc1cc(-c2ccc(C(=O)Nc3cc4sc(N5CCOCC5)nc4nc3N3CCCC(O)(CO)C3)o2)ccn1` (centres unmarked) [Example 5, N-(5-(3-hydroxy-3-(hydroxymethyl)piperidin-1-yl)-2-morpholinothiazolo[4,5-b]pyridin-6-yl)-5-(2-methylpyridin-4-yl)furan-2-carboxamide hydrochloride], for which the inhibition at 0.1 µM amounted to 98% and the inhibition at 1 µM is 99%.

Take `O=C(Nc1cc2sc(N3CCOCC3)nc2nc1N1CCCCC1)c1ccnc(N2CCC(O)C2)n1` (centres unmarked) [Example 53, 2-(3-hydroxypyrrolidin-1-yl)-N-(2-morpholino-5-(piperidin-1-yl)thiazolo[4,5-b]pyridin-6-yl)pyrimidine-4-carboxamide]: the inhibition at 0.1 µM came to 90% and the inhibition at 1 µM came out at 97%.

Consider `O=C(Nc1cc2sc(N3CCOCC3)nc2nc1N1CCCCC1)c1cccc(N2CCC(CO)CC2)n1` [Example 32, 6-(4-(hydroxymethyl)piperidin-1-yl)-N-(2-morpholino-5-(piperidin-1-yl)thiazolo[4,5-b]pyridin-6-yl)picolinamide], for which the inhibition at 0.1 µM was 93% and the inhibition at 1 µM was found to be 95%.

As for `O=C(Nc1cc2sc(N3CCOCC3)nc2nc1N1CCCCC1)c1cccc(N2CCC(CCO)CC2)n1` [Example 35, 6-(4-(2-hydroxyethyl)piperidin-1-yl)-N-(2-morpholino-5-(piperidin-1-yl)thiazolo[4,5-b]pyridin-6-yl)picolinamide], the inhibition at 0.1 µM was determined as 92% and the inhibition at 1 µM came to 95%.

With `O=C(Nc1cc2sc(N3CCOCC3)nc2nc1N1CCCCC1)c1cnn2cccnc12` [Example 19, N-(2-morpholino-5-(piperidin-1-yl)thiazolo[4,5-b]pyridin-6-yl)pyrazolo[1,5-a]pyrimidine-3-carboxamide], the “% inhibition of IRAK-4 @0.1 μM” value (compound at 0.1 μM) was 98%. Also, where the note is “compound at 1 μM”, the “% inhibition of IRAK-4 @ 1 μM” value was 99%.

For `Nc1cc(-c2cccc(C(=O)Nc3cc4sc(N5CCOCC5)nc4nc3C3CC3)n2)ccn1` [Example 52, 2′-amino-N-(5-cyclopropyl-2-morpholinothiazolo[4,5-b]pyridin-6-yl)-[2,4′-bipyridine]-6-carboxamide], the inhibition at 0.1 µM is 95% and the inhibition at 1 µM is 96%.

In the case of `Cc1cc(-c2cccc(C(=O)Nc3cc4sc(N5CCOCC5)nc4nc3N3CCC[C@@H](O)C3)n2)ccn1` [Example 41, (R)-N-(5-(3-hydroxypiperidin-1-yl)-2-morpholinothiazolo[4,5-b]pyridin-6-yl)-2′-methyl-[2,4′-bipyridine]-6-carboxamide], the inhibition at 0.1 µM amounted to 92% and the inhibition at 1 µM is 98%.

As for `NC1CCCN(c2ccn3ncc(C(=O)Nc4cc5sc(N6CCOCC6)nc5nc4N4CC[C@@H](O)C4)c3n2)C1` (stereo partly drawn) [Example 102, 5-(3-aminopiperidin-1-yl)-N-(5-((R)-3-hydroxypyrrolidin-1-yl)-2-morpholinothiazolo[4,5-b]pyridin-6-yl)pyrazolo[1,5-a]pyrimidine-3-carboxamide hydrochloride], the inhibition at 0.1 µM is 21% and the inhibition at 1 µM was found to be 56%.

`O=C(Nc1cc2sc(N3CCOCC3)nc2nc1C1CC1)c1cncc(N2CCC(O)C2)n1` (centres unmarked) [Example 50, N-(5-cyclopropyl-2-morpholinothiazolo[4,5-b]pyridin-6-yl)-6-(3-hydroxypyrrolidin-1-yl)pyrazine-2-carboxamide]: the inhibition at 0.1 µM was 67% and the inhibition at 1 µM is 95%.

With `NC(=O)C1CCN(c2cccc(C(=O)Nc3cc4sc(N5CCOCC5)nc4nc3N3CCCCC3)n2)CC1` [Example 82, 6-(4-carbamoylpiperidin-1-yl)-N-(2-morpholino-5-(piperidin-1-yl)thiazolo[4,5-b]pyridin-6-yl)picolinamide], the inhibition at 0.1 µM was determined as 93% and the inhibition at 1 µM turned out to be 98%.

In the case of `Nc1ccc(-c2cccc(C(=O)Nc3cc4oc(N5CCOCC5)nc4nc3N3CC[C@@H](O)C3)n2)cn1` [Example 90, (R)-6′-amino-N-(5-(3-hydroxypyrrolidin-1-yl)-2-morpholinooxazolo[4,5-b]pyridin-6-yl)-[2,3′-bipyridine]-6-carboxamide hydrochloride], the inhibition at 0.1 µM is 87% and the inhibition at 1 µM came out at 97%.

Regarding `Cc1cc(-c2nc(C(=O)Nc3cc4sc(N5CCOCC5)nc4nc3OC3CCC(N4CCOCC4)CC3)co2)ccn1` (centres unmarked) [Example 6, 2-(2-methylpyridin-4-yl)-N-(2-morpholino-5-(((1r,4r)-4-morpholinocyclohexyl)oxy)thiazolo[4,5-b]pyridin-6-yl)oxazole-4-carboxamide hydrochloride], the inhibition at 0.1 µM is 100% and the inhibition at 1 µM is 100%.

With `Cc1cc(-c2nc(C(=O)Nc3cc4sc(N5CCOCC5)nc4nc3N3CCC(O)(CO)C3)co2)ccn1` (centres unmarked) [Example 9, N-(5-(3-hydroxy-3-(hydroxymethyl)pyrrolidin-1-yl)-2-morpholinothiazolo[4,5-b]pyridin-6-yl)-2-(2-methylpyridin-4-yl)oxazole-4-carboxamide hydrochloride], the inhibition at 0.1 µM is 101% and the inhibition at 1 µM worked out at 99%.

`O=C(Nc1cc2sc(N3CCOCC3)nc2nc1N1CCCCC1)c1cccc(N2C3CCC2CC(O)C3)n1` (centres unmarked) [Example 81, 6-(3-hydroxy-8-azabicyclo[3.2.1]octan-8-yl)-N-(2-morpholino-5-(piperidin-1-yl)thiazolo[4,5-b]pyridin-6-yl)picolinamide]: the inhibition at 0.1 µM came out at 88% and the inhibition at 1 µM came out at 94%.

For `O=C(Nc1cc2sc(N3CCOCC3)nc2nc1N1CCCCC1)c1cccc(N2CCC(CO)C2)n1` (centres unmarked) [Example 77, 6-(3-(hydroxymethyl)pyrrolidin-1-yl)-N-(2-morpholino-5-(piperidin-1-yl)thiazolo[4,5-b]pyridin-6-yl)picolinamide], the inhibition at 0.1 µM was found to be 98% and the inhibition at 1 µM stood at 99%.

For `O=C(Nc1cc2sc(N3CCOCC3)nc2nc1N1CCC[C@@H](O)C1)c1cccc(N2CC[C@H](O)C2)n1` [Example 28, N-(5-((R)-3-hydroxypiperidin-1-yl)-2-morpholinothiazolo[4,5-b]pyridin-6-yl)-6-((S)-3-hydroxypyrrolidin-1-yl)picolinamide], the inhibition at 0.1 µM turned out to be 90% and the inhibition at 1 µM was 93%.

As to `Cn1cc(-c2nc(C(=O)Nc3cc4sc(N5CCOCC5)nc4nc3N3CCCCC3)co2)ccc1=O` [Example 3, 2-(1-methyl-6-oxo-1,6-dihydropyridin-3-yl)-N-(2-morpholino-5-(piperidin-1-yl)thiazolo[4,5-b]pyridin-6-yl)oxazole-4-carboxamide], the inhibition at 0.1 µM stood at 97% and the inhibition at 1 µM amounted to 98%.

Regarding `O=C(Nc1cc2sc(N3CCOCC3)nc2nc1N1CCCCC1)c1cnn2cccnc12` [Example 104, N-(2-morpholino-5-(piperidin-1-yl)thiazolo[4,5-b]pyridin-6-yl)pyrazolo[1,5-a]pyrimidine-3-carboxamide hydrochloride], the inhibition at 0.1 µM came out at 95% and the inhibition at 1 µM was 97%.
